According to patent publication US20240254119A1 (THIRD HARMONIC BIO, INC., priority 2022, published 2024):

What was measured:
Kinetic solubility assay = assay type: physicochemical; conditions: kinetic solubility, 50 mM PB (pH 7.4), shaken 24 hours at RT
Method in brief: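 Test compounds from 10 mM DMSO stock were diluted in 50 mM phosphate buffer, pH 7.4, and shaken for 24 h at RT. After PTFE filtration and centrifugation, filtrate concentration was quantified by UPLC-UV/HPLC-UV against a standard curve.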

[1] = Three time point assay for plasma, brain and testes distribution after oral dosing; assay type: in vivo, rat; conditions: rat, oral dosing
Experimental: Exemplary compounds were tested for distribution in plasma, brain and testes tissue following oral dosing of the compounds in rats. Procedures and results are described below.
Male SD Rats were group-housed (up to four animals/sex/cage) in polysulfone cages with certified aspen wood bedding during acclimation and study period.
Certified rodent diet and water was provided to all animals ad libitum, unless fasting for study procedures.
Appropriate amount of test article was accurately weighed and mixed with an appropriate volume of vehicle to get a clear solution or a uniform suspension; vortexing or sonication in water bath may also be need. Animals were dosed within four hours after the formulation is prepared.
For PO dosing, the dose formulation was administered via oral gavage following facility SOPs. The dose volume was determined by the animals' body weight collected on the morning of dosing day. The dose was 10 mg/kg.
Each blood collection (about 1 mL per time point at one or more of 0.5 h, 2 h, 3 h, 5.3 h, and 7 h) was performed from jugular vein or other suitable site of each animal into pre-chilled commercial EDTA-K2 tubes and placed on wet ice until centrifugation.
Blood samples were processed for plasma by centrifugation at approximately 4° C., 3,200 g for 10 min. Plasma was collected respectively and transferred into pre-labeled 96 well plate or polypropylene tubes, quick frozen over dry ice and kept at −60° C. or lower until LC-MS/MS analysis.
Rat brain was perfused with PBS to remove blood before harvest.
After perfusion, brain and testis were homogenized using homogenizing buffer (15 mM PBS (pH7.4):MeOH=2:1) at the ratio of 1:9 (1 g tissue with 9 mL buffer, the dilution ratio is 10). The brain homogenate was kept at −60° C. or lower until LC-MS/MS analysis. General sample processing procedure (brain homogenate & testis homogenate) using 96-well plate: • 1). An aliquot of 40 μL unknown sample, calibration standard, quality control and dilution quality control (if have), single blank, and double blank sample was added to the 96-well plate respectively; • 2). Each sample (except the double blank) was quenched with 400 μL of IS1 respectively (double blank sample was quenched with 400 μL of I), and then the mixture was vortex-mixed for 10 min at 800 rpm and centrifuged for 15 min at 3220×g, 4° C.; • 3). An aliquot of 50 μL supernatant was transferred to another clean 96-well plate and centrifuged for 5 min at 3220×g, 4° C., then the supernatant was directly injected for LC-MS/MS analysis.
• 1. A LC-MS/MS method for the quantitative determination of test compound in biological matrix was developed under Non-GLP compliance. • 2. A calibration curve with at least 6 non-zero calibration standards was applied for the method including LLOQ. • 3. A set of QCs consisting of low, middle, and high concentrations were applied for the method. • 4. N in 1 cassette LC-MS/MS method was developed for samples coming from different studies and the interference among all cassette analytes was evaluated during the method development. • 5. Cassette administration assay was performed if the mass difference (Δmass) among different analytes was more than 4 Da. In this case, interference evaluation was not necessary.
• 1. If sample number within a batch was ≤12, at least one set of standard curve separated with two parts through begin and end of the sequence, was included in the run, and QCs were not required. The recommended injection order was C8, C6, C4, C2, study samples, C7, C5, C3, C1. • 2. If sample number within a batch was >12, one standard curve and two sets of QCs with low, middle and high concentrations were applied for bioanalysis. Meanwhile, QCs number should be more than 5% of study sample number. • 3. Samples with the same types of matrix in different studies were quantified in one analysis run by using the developed N in 1 cassette LC-MS/MS method. • 4. […]

CYP3A4 = experiment: Hepatocyte CYP induction assay, CYP3A4 gene expression; assay type: in vitro ADME; conditions: human hepatocytes
Experimental: Exemplary compounds were tested for ability to induce CYP3A4 and/or CYP1A2 in hepatocytes. Procedures and results are described below.
Cryopreserved human hepatocytes were purchased from BioIVT (Baltimore, MD, USA), and they were stored in liquid nitrogen before using. The detailed information of hepatocytes is as follows:
Fresh dosing solutions of test compounds, and Rifampicin were prepared in the incubation medium on the day of dosing.
Cryopreserved hepatocytes were thawed and counted to determine yield, viability was measured. Hepatocytes at the concentrations of 0.7 million/mL were transferred to collagen-coated 96-well plates for attachment (0.1 mL viable cells/well). After allowing 4 to 5 hours for attachment of cells, the plating medium was replaced with Incubation Medium containing 2% (v/v) Matrigel™ (sandwich medium) and the hepatocytes were incubated until use.
All incubations were conducted at 37° C., 5% CO2, and saturated humidity.
The sandwich medium was removed and the hepatocytes were treated with incubation solutions containing test articles in vehicle (0.1% DMSO), or positive control for 24 hours after the cultures were established. The incubation solution was aspirated and replaced with incubation solution containing the same concentrations of test articles, vehicle, or positive controls for an additional 24 hours. The total treatment period was 48 hours. Triplicate were used for each concentration of test compound and positive control.
After treatment period of 48 hours, the incubation solution was aspirated. Hepatocytes were washed once with pre-warmed HBSS and incubated with 140 μL of RLT (lysis buffer from Rneasy 96 Kit) supplemented with 1% β-mercaptoethanol. Plates were then stored at ≤−60° C. freezer until RNA analysis.
Before RNA extraction, the frozen plate was thawed and cell lysates were transferred to 96-well plates. RNA isolation was performed using QIAcube HT System. RNA concentration was measured with NanoDrop ND-2000 spectrophotometer. The purity of RNA preparation was calculated by the ratio of the OD260 nm/OD280 nm and the acceptable range is between 1.8 and 2.2. Reverse transcription was performed to obtain cDNA. Quantification of the selective genes by real time quantitative Polymerase Chain Reaction (qPCR) was performed with TaqMan universal PCR Master Mix on the BIO-RAD CFX 384 Touch Real Time PCR System. The following setting were used: 50° C. for 2 minutes, 95° C. for 10 minutes, 40 cycles of 95° C. for 15 seconds and 60° C. for 1 minute. 18S rRNA was used as the internal standard.
To account for variation in RNA yields and reverse transcription polymerase chain reaction (RT-PCR), the gene of interest in all samples was normalized to an internal control gene (18S ribosomal RNA) (Cttarget gene−Ct18S=ΔCt).
The relative quantitation or change in mRNA level of selected genes induced by each test compound was expressed in relation to the vehicle control sample (Δctcompound−ΔCtvehicle=ΔΔCt). Fold changes in gene expression were determined by taking 2 to the power of this value (2^−ΔΔt).
% of positive control [(fold change in treated sample)−1]/[(fold change in positive control)−1]×100

[2] = molecular target: T1, KIT-NanoLuc fusion in HEK293 cells (Homo sapiens, UniProt P10721); experiment: NanoBRET cellular target engagement assay, KIT; assay type: cell-based
T1 construct: expressed in transfected cells; host or cells: HEK293, transient transfection
Experimental: Exemplary compounds were tested for their ability to inhibit target engagement of KIT or CSF-1R kinases through competitive displacement of a Nano-Luc luciferase kinase fusion in HEK293 cells.
The NanoBRET target engagement assay employs an energy transfer technique designed to measure molecular proximity in living cells. The assay measures the apparent affinity of test compounds by competitive displacement of the NanoBRET tracer, reversibly bound to a NanoLuc luciferase-kinase fusion construct in cells. The intracellular binding affinity and selectivity are physiologically relevant and fundamental to the pharmacological mechanism of the compounds. While biochemical and biophysical assays identify the kinase inhibitors in vitro, the NanoBRET target engagement assay serves to determine the direct interaction of the compounds binding to target kinases in cells.
HEK293 cells transiently expressing NanoLuc-DDR1 fusion vector were seeded into 384-well plates and treated with the Tracer K-4 and compound for 1 hour. The BRET signal was measured on an EnVision 2104 multilabel microplate reader. NanoBRET Target Engagement Assay in HEK293 cells transiently transfected with KIT and CSF1R-NanoLuc Fusion Vector. HEK293 cells were transfected with […] KIT or CSF1R-NanoLuc Fusion Vector and […] carrier DNA. The transfected cells were treated with test compounds (starting at 10 μM, 10-dose with 3-fold dilution) and reference compound (desatinib) (starting at 1 μM, 10-dose with 3-fold dilution). Percent inhibition due to compound activity was calculated to determine IC50.

PDGFRα [3] = molecular target: T2, PDGFRα (Homo sapiens, UniProt P16234); experiment: HTRF biochemical assay, PDGFRα; conditions: Table 4, read-out: PDFGRα Biochemical IC50 avg
T2 construct: purchased Millipore 14-467 (lot 26321_ACTI)
Experimental: (§1) Exemplary compounds were tested for ability to inhibit the phosphorylation of a peptide substrate by the tyrosine kinase wt KIT, PDGFRα, or CSF-1R. Assay procedures and results are described below.
(§2) Enzyme, substrate, and cofactors (ATP and Mn^2+) are combined in a well of a microtiter plate and incubated for 3 hours at 25° C. At the end of the incubation, the reaction is quenched by the addition of an EDTA-containing buffer.
(§3) The substrate used in the CSF-1R and PDGFRα assay is FAM-[…]-CONH2 (FAM is carboxyfluorescein). Peptide should be >95% purity. The substrate for the KIT assay is FAM-[…]-NH2.
(§4) • 1. To a well of a 384-wellplate add 5 μL of 2× enzyme buffer (or control). • 2. Add 100 nL of 100× compound. Enzyme and compound may be pre-incubated at this time if desired. • 3. Add 5 μL of 2× substrate buffer. • 4. Incubate plate at 25° C. for 3 hours. • 5. Add 10 uL of anti-phosphotyrosine antibody buffer. • 6. Read plate in BioTek Synergy Reader. Reaction Conditions for wtKIT Assay

wtKIT [4] = molecular target: T3, wtKIT (Homo sapiens, UniProt P10721); experiment: HTRF biochemical assay, wtKIT (phosphorylation of a peptide substrate); conditions: Table 4
T3 construct: 1888289AM in the reaction mixtures
Method in brief: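 wtKIT (5.0 nM) phosphorylating 1 µM FAM-labelled peptide with 400 µM ATP and 10 mM MnCl2 in 100 mM HEPES pH 7.5, 1% DMSO, 3 h at 25 °C. EDTA quench; phosphopeptide detected with anti-phosphotyrosine antibody by HTRF. Enzyme titrated for 10-20% substrate conversion.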

[5] = test system: KIT phosphorylation in M-07e cells; experiment: Cell-based KIT phosphorylation in M-07e cells by pKIT ELISA; design: species or system human; conditions: SCF stimulation
Method in brief: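 Serum-starved M-07e cells (1 × 10^6/mL, overnight) were treated with compounds (8-point 3-fold series from 1 uM) for 2 h at 37 °C, then stimulated with 100 ng/mL SCF for 5 min. Lysate phospho-KIT was captured on anti-phospho-CD117 plates, detected with anti-pY-HRP, and read at 450 nm against a pc-KIT standard curve.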

CSF-1R [6] = molecular target: T4, CSF-1R (Homo sapiens, UniProt P07333); experiment: HTRF biochemical assay, CSF-1R; conditions: Table 4
T4 construct: purchased Invitrogen PV3249 (lot 662393N)
Experimental: as §1, §2, §3, §4

PDGFRα [7] = molecular target: T2, PDGFRα; experiment: Caliper biochemical assay, PDGFRα; conditions: Table 6
Method in brief: (§5)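 Kinase, FAM-labelled peptide substrate, ATP and Mn^2+ incubated with compound for 3 h at 25° C, then quenched with EDTA buffer. Substrate and phosphorylated product separated by microfluidic electrophoresis and quantified by fluorescence intensity; no-enzyme wells define 100% inhibition.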

wtKIT [8] = molecular target: T3, wtKIT; experiment: Caliper biochemical assay, wtKIT; conditions: Table 6, read-out: KIT Biochemical IC50 avg
Method in brief: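 Enzyme (5.0 nM wtKIT), 1 μM FAM-labelled peptide, 400 μM ATP and 10 mM MnCl2 in HEPES pH 7.5 with 1% DMSO, incubated 3 h at 25° C. EDTA quench; substrate and phosphoproduct separated by microfluidic electrophoresis and quantified by fluorescence.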

CSF-1R [9] = molecular target: T4, CSF-1R; experiment: Caliper biochemical assay, CSF-1R; conditions: Table 6
Method in brief: as §5

T4 sequence (P07333 20-972): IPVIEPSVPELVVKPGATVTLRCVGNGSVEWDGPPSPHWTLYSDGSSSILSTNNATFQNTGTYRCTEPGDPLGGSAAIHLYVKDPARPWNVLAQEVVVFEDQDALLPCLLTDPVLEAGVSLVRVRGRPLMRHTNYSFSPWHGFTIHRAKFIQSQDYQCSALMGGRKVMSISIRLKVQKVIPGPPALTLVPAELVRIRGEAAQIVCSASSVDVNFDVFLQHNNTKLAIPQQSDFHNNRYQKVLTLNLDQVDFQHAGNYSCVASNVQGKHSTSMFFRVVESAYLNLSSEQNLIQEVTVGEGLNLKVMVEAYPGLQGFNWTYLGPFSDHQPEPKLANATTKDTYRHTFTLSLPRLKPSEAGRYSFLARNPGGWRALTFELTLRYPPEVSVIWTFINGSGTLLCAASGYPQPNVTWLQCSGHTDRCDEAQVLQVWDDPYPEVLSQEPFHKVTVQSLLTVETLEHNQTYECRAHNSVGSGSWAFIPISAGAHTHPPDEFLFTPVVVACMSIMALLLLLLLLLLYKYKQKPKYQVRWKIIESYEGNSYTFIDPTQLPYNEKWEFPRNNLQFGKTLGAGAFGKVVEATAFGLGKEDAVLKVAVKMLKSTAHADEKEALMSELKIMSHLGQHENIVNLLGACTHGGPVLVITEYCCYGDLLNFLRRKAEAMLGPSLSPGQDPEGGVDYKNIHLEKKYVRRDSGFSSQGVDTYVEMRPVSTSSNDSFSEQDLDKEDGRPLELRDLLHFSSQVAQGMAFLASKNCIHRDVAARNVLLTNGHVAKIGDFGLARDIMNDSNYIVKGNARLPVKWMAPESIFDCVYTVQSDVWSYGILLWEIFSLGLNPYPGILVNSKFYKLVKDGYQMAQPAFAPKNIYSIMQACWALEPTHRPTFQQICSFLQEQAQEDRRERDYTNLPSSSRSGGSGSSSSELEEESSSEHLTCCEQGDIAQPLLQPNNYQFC
T3 sequence (P10721 26-976): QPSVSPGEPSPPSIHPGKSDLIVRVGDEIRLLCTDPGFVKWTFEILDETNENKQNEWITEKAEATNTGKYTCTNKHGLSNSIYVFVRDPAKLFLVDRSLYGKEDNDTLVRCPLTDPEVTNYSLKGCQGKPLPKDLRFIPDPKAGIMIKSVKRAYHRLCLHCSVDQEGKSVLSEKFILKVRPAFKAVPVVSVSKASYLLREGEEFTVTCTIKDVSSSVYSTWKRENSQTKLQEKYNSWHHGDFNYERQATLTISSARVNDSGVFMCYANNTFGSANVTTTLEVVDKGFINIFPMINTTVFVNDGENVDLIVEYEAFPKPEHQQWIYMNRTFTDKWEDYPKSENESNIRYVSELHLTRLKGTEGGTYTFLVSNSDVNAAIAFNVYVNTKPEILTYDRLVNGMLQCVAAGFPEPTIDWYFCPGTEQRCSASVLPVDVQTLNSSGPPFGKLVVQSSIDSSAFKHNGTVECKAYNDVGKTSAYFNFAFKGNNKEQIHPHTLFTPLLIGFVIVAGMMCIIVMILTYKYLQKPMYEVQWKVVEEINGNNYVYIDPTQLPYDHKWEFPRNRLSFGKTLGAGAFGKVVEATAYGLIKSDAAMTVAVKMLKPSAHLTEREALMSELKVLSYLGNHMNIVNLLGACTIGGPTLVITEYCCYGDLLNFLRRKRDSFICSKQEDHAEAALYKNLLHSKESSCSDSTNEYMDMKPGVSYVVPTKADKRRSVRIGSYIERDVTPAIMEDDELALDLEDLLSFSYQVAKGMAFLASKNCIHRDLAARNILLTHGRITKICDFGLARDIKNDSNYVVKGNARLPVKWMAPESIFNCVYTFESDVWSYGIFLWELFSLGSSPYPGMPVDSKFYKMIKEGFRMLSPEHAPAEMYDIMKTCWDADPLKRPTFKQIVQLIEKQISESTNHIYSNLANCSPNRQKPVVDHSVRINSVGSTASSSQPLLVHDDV
T2 sequence (P16234 24-1089): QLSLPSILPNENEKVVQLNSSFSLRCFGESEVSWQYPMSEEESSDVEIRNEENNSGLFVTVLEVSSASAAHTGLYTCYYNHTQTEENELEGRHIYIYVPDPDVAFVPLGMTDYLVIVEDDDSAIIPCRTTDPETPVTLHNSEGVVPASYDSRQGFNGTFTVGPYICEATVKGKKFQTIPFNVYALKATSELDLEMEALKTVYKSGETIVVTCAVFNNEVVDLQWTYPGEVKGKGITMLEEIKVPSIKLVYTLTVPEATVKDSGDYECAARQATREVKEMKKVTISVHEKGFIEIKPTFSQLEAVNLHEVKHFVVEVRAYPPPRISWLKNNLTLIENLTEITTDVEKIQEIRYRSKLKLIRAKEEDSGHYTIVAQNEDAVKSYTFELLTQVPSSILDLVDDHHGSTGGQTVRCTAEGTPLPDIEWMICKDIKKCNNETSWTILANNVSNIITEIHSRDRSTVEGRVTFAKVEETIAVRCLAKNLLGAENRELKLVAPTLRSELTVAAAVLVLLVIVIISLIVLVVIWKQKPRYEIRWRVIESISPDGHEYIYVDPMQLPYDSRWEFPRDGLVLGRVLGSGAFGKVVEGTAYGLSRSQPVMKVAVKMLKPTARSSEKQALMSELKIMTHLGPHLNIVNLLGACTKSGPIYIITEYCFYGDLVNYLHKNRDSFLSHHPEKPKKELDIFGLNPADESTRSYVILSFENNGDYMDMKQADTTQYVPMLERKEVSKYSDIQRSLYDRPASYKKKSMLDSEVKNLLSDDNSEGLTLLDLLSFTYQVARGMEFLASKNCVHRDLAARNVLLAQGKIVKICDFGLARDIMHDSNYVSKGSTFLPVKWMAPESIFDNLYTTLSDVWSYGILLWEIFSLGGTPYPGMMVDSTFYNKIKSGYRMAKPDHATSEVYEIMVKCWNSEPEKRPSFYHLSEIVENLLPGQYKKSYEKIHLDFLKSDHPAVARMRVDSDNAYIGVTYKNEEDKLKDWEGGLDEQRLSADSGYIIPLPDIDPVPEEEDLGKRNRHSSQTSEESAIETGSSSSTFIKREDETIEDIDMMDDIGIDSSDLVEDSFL
T1 sequence (P10721 26-976): as the sequence (P10721 26-976) above

## COc1ccn2c(C(=O)Nc3cc(-c4noc(CC(O)C(F)F)n4)ccc3C)cnc2c1 (single isomer, unassigned) [Compound I-40]
Kinetic solubility assay
  Solubility (μM): **** (a solubility less than or equal to 2 μM)
[1]; time point 0.5 h
  Brain concentration: 63.2 ng/g
  Kp brain/plasma: 0.09
  Kp testes/plasma: 0.17
  Plasma concentration: 712 ng/mL
  Testes concentration: 123 ng/g
[1]; time point 2 h
  Brain concentration: 144 ng/g
  Kp brain/plasma: 0.08
  Kp testes/plasma: 0.32
  Plasma concentration: 1770 ng/mL
  Testes concentration: 568 ng/g
[1]; time point 7 h
  Brain concentration: 65.4 ng/g
  Kp brain/plasma: 0.09
  Kp testes/plasma: 0.41
  Plasma concentration: 764 ng/mL
  Testes concentration: 300 ng/g
CYP3A4; donor five
  CYP 3A4 induction mRNA: Mean fold at 10 μM: ++ (induction fold of greater than 2-fold to less than or equal to 3-fold)
CYP3A4; donor one
  CYP 3A4 induction mRNA: Mean fold at 10 μM: +++ (induction fold of greater than 3-fold to less than or equal to 10-fold)

## Cc1nc(-c2ccc(C)c(NC(=O)c3cnc4cc(COCCO)ccn34)c2)no1 [Compound I-110]
[2]
  IC50: ≤ 100 nM
PDGFRα [3]
  IC50: 500 to 5000 nM
Kinetic solubility assay
  Solubility (μM): * (a solubility greater than 50 μM)
wtKIT [4]
  IC50: ≤ 50 nM
[5]
  IC50: 50 to 500 nM
CSF-1R [6]
  IC50: 500 to 5000 nM

## CCc1nc(-c2ccc(C)c(NC(=O)c3cnc4ccccn34)c2)no1 [Compound I-283]
PDGFRα [7]
  IC50: 5000 to 30000 nM
wtKIT [8]
  IC50: ≤ 50 nM
Kinetic solubility assay
  Solubility (μM): ** (a solubility greater than 10 μM and less than or equal to 50 μM)
CYP3A4; donor two
  CYP 3A4 induction mRNA: Mean fold at 10 μM: ++++ (induction fold of greater than 10-fold)
CSF-1R [9]
  IC50: ≤ 50 nM
